This assay deals with T1, recombinant full-length human prolyl endopeptidase (PREP) (Homo sapiens, UniProt P48147).
T1 construct: To recombinant full-length human prolyl endopeptidase (PREP, R&D-Systems, 4308-SE); purchased R&D-Systems 4308-SE
T1 sequence (P48147 1-710): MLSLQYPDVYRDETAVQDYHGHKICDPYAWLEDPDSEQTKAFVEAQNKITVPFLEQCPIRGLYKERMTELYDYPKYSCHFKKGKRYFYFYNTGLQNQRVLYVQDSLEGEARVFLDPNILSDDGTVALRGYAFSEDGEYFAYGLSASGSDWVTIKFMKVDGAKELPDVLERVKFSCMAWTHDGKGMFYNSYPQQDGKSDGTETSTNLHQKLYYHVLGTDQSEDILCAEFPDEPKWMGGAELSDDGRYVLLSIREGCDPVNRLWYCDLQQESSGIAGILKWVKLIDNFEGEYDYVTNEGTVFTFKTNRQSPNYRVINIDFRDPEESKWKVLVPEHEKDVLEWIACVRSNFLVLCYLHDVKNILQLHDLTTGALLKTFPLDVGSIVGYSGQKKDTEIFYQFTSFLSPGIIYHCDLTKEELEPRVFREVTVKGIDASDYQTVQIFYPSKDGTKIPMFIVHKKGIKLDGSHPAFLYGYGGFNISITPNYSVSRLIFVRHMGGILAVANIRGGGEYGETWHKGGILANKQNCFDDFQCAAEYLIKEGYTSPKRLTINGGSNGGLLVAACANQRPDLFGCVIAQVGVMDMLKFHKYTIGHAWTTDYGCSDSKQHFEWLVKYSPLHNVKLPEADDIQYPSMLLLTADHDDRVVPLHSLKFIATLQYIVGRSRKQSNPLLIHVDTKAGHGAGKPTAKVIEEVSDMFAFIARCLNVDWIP
Briefly: Biochemical human prolyl endopeptidase (PREP) assay with fluorescently labelled substrate. As to conditions: substrate Z-Gly-Pro-AMC 50 μM, 32° C., 60 min; some as mean values from multiple independent determinations. As for the experimental part: B-1 Biochemical Human Prolyl Endopeptidase (PREP) Assay for Identification of Inhibitors of PREP Activity Using a Fluorescently Labelled Substrate Principle of the Assay:
The enzymatic conversion of the fluorescent peptide substrate was observed on the basis of the measurement of the fluorescence intensity. The enzyme activity was determined by the ascertaining of the initial slope in the increase in fluorescence. Compounds that inhibit PREP were identified on the basis of the decrease in the initial slope compared to a reaction mixture without test compound.
Determination of Activity:
IC50 values were determined by the plotting of the percentage PREP activity against the concentration of the test substance by interpolation.
To recombinant full-length human prolyl endopeptidase (PREP, R&D-Systems, 4308-SE; final concentration, for example, 0.4 nM, volume: 25 μl) in reaction buffer (50 mM Tris-HCl, pH 7.5; 150 mM NaCl; 0.13% BSA, 5 mM EDTA, 3 mM GSH, 0.005% Brij-35) was added a test compound (in DMSO, in an appropriate final concentration range from 1 nM to 30 μM, volume: 1 μl) in a well of a 384-well microtitre plate. The reaction was initiated by adding the substrate Z-Gly-Pro-AMC (final concentration 50 μM; Z=carboxybenzyl; AMC=7-amino-4-methylcoumarin, volume: 25 μl). The progress of the PREP reaction was observed by measuring the fluorescence intensity in a Tecan SAFIRE II plate spectrophotometer at 32° C. over a period of 60 min (excitation wavelength: 360 nm, emission wavelength: 465 nm).
Table B-1 below collates the IC50 values thus obtained from the human prolyl endopeptidase assay for individual working examples of the invention (some as mean values from multiple independent individual determinations).
With `O=C(C1CCc2nn(Cc3ccnc(C(F)(F)F)c3F)c(=O)n21)N1CCC(F)(F)C1` (racemic) [Example 181, (5RS)-5-[(3,3-Difluoropyrrolidin-1-yl)carbonyl]-2-{[3-fluoro-2-(trifluoromethyl)pyridin-4-yl]methyl}-2,5,6,7-tetrahydro-3H-pyrrolo[2,1-c][1,2,4]triazol-3-one], the IC50 (in general, the concentration that inhibits the measured activity by half) is 24.8 nM.
As to `O=C([C@@H]1CCCc2nn(Cc3ccnc(C(F)(F)F)c3F)c(=O)n21)N1CCCC1` [Example 75, (5S)-2-{[3-Fluoro-2-(trifluoromethyl)pyridin-4-yl]methyl}-5-(pyrrolidin-1-ylcarbonyl)-5,6,7,8-tetrahydro[1,2,4]triazolo[4,3-a]pyridin-3(2H)-one], the IC50 amounted to 1.1 nM.
The same measure for `Cc1ccc(Cn2nc3n(c2=O)[C@H](C(=O)N2C[C@H](F)[C@@H](F)C2)CCC3)cc1` [Example 140, (5S)-5-{[(3S,4S)-3,4-Difluoropyrrolidin-1-yl]carbonyl}-2-(4-methylbenzyl)-5,6,7,8-tetrahydro[1,2,4]triazolo[4,3-a]pyridin-3(2H)-one]: 16 nM.
On to `O=C([C@@H]1CCCc2nn(Cc3cc(C(F)(F)F)nc4ccccc34)c(=O)n21)N1CC[C@H](O)C1` [Example 496, (5S)-5-{[(3S)-3-Hydroxypyrrolidin-1-yl]carbonyl}-2-{[2-(trifluoromethyl)quinolin-4-yl]methyl}-5,6,7,8-tetrahydro[1,2,4]triazolo[4,3-a]pyridin-3(2H)-one], for which the IC50 is 18 nM.
The same measure for `O=C(C1CCc2nn(Cc3ccc(F)c(Cl)c3)c(=O)n21)N1CCC(F)(F)C1` (racemic) [Example 168, (5RS)-2-(3-Chloro-4-fluorobenzyl)-5-[(3,3-difluoropyrrolidin-1-yl)carbonyl]-2,5,6,7-tetrahydro-3H-pyrrolo[2,1-c][1,2,4]triazol-3-one]: 4.1 nM.
With `O=C(C1CCCc2nn(Cc3ccc(Cl)nc3)c(=O)n21)N1CCC(F)(F)C1` (racemic) [Example 80, (5RS)-2-[(6-Chloropyridin-3-yl)methyl]-5-[(3,3-difluoropyrrolidin-1-yl)carbonyl]-5,6,7,8-tetrahydro[1,2,4]triazolo[4,3-a]pyridin-3(2H)-one] the figure was 16 nM; with `COc1ccc(CCn2nc3n(c2=O)[C@H](C(=O)N2CC(F)(F)C2)CCC3)cc1` [Example 523, (5S)-5-[(3,3-Difluoroazetidin-1-yl)carbonyl]-2-[2-(4-methoxyphenyl)ethyl]-5,6,7,8-tetrahydro[1,2,4]triazolo[4,3-a]pyridin-3(2H)-one], 28.5 nM; with `O=C([C@@H]1CCCc2nn(Cc3ccnc(C(F)(F)F)n3)c(=O)n21)N1CCCC1` [Example 94, (5S)-5-(Pyrrolidin-1-ylcarbonyl)-2-{[2-(trifluoromethyl)pyrimidin-4-yl]methyl}-5,6,7,8-tetrahydro[1,2,4]triazolo[4,3-a]pyridin-3(2H)-one], 57 nM.
For the compound `N#C[C@@H]1CCCN1C(=O)[C@@H]1CCCc2nn(Cc3csc(C(F)(F)F)n3)c(=O)n21` [Example 367, (2S)-1-{[(5S)-3-Oxo-2-{[2-(trifluoromethyl)-1,3-thiazol-4-yl]methyl}-2,3,5,6,7,8-hexahydro[1,2,4]triazolo[4,3-a]pyridin-5-yl]carbonyl}pyrrolidine-2-carbonitrile], the IC50 was found to be 0.425 nM.
The same measure for `COc1ccc(Cn2nc3n(c2=O)C(C(=O)N2CCC(F)(F)C2)CCC3)cc1Cl` (racemic) [Example 49, (5RS)-2-(3-Chloro-4-methoxybenzyl)-5-[(3,3-difluoropyrrolidin-1-yl)carbonyl]-5,6,7,8-tetrahydro[1,2,4]triazolo[4,3-a]pyridin-3(2H)-one]: 1.75 nM; for `O=C(C1CCc2nn(Cc3ccc(Cl)nc3)c(=O)n21)N1CC(F)C1` (racemic) [Example 169, (5RS)-2-[(6-Chloropyridin-3-yl)methyl]-5-[(3-fluoroazetidin-1-yl)carbonyl]-2,5,6,7-tetrahydro-3H-pyrrolo[2,1-c][1,2,4]triazol-3-one]: 31.5 nM.
As for `Cn1ccc(Cn2nc3n(c2=O)C(C(=O)N2CCC(F)(F)C2)CCC3)n1` (racemic) [Example 90, (5RS)-5-[(3,3-Difluoropyrrolidin-1-yl)carbonyl]-2-[(1-methyl-1H-pyrazol-3-yl)methyl]-5,6,7,8-tetrahydro[1,2,4]triazolo[4,3-a]pyridin-3(2H)-one], the IC50 was determined as 9.8 nM.
For `O=C(C1CCCc2nn(Cc3ccc(Cl)c(C(F)(F)F)c3)c(=O)n21)N1CCCC1` (racemic) [Example 37], the IC50 was 0.83 nM.
With `O=C(C1CCCc2nn(Cc3ccc(C(F)(F)F)c(F)c3)c(=O)n21)N1CCCC1` (racemic) [Example 14] the figure was 0.3 nM; with `O=C(C1C(C(F)(F)F)CCc2nn(Cc3ncc(Cl)cc3Cl)c(=O)n21)N1CC(F)C1` (racemic) [Example 306, (5RS,6RS)-2-[(3,5-Dichloropyridin-2-yl)methyl]-5-[(3-fluoroazetidin-1-yl)carbonyl]-6-(trifluoromethyl)-5,6,7,8-tetrahydro[1,2,4]triazolo[4,3-a]pyridin-3(2H)-one], 215 nM.
As to `O=C([C@@H]1CCc2nn(Cc3cccc(C(F)(F)F)c3)c(=O)n21)N1CCCC1` [Example 55, (5S)-5-(Pyrrolidin-1-ylcarbonyl)-2-[3-(trifluoromethyl)benzyl]-2,5,6,7-tetrahydro-3H-pyrrolo[2,1-c][1,2,4]triazol-3-one], the IC50 stood at 1.4 nM.
With `O=C(C1CC(C(F)(F)F)Cc2nn(Cc3ncc(F)cc3F)c(=O)n21)N1CCC(F)(F)C1` (racemic) [Example 573, (5RS,7RS)-2-[(3,5-Difluoropyridin-2-yl)methyl]-5-[(3,3-difluoropyrrolidin-1-yl)carbonyl]-7-(trifluoromethyl)-5,6,7,8-tetrahydro[1,2,4]triazolo[4,3-a]pyridin-3(2H)-one] the figure was 5.9 nM; with `O=C([C@@H]1CCC(F)(F)c2nn(Cc3ccc(Cl)cn3)c(=O)n21)N1CC(F)C1` [Example 587, (5S)-2-[(5-Chloropyridin-2-yl)methyl]-8,8-difluoro-5-[(3-fluoroazetidin-1-yl)carbonyl]-5,6,7,8-tetrahydro[1,2,4]triazolo[4,3-a]pyridin-3(2H)-one], 6.4 nM; with `O=C(C1CCC(C(F)(F)F)c2nn(Cc3ccc(C(F)(F)F)nc3)c(=O)n21)N1CC[C@H](F)C1` (single isomer, unassigned) [Example 272], 0.695 nM.
As to `CO[C@H]1CCN(C(=O)[C@@H]2CCCc3nn(Cc4ccc(C)cc4)c(=O)n32)C1` [Example 130, (5S)-{[(3S)-3-Methoxypyrrolidin-1-yl]carbonyl}-2-(4-methylbenzyl)-5,6,7,8-tetrahydro[1,2,4]triazolo[4,3-a]pyridin-3(2H)-one], the IC50 was determined as 50.5 nM.
`O=C([C@@H]1CCCc2nn(Cc3ccc(Cl)nc3)c(=O)n21)N1CC(F)C(F)C1` (single isomer, unassigned) [Example 552]: the IC50 was 6.4 nM.
The same measure for `O=C([C@@H]1CCCc2nn(Cc3cccc(C(F)(F)F)c3)c(=O)n21)N1CC(F)C1` [Example 447, (5S)-5-[(3-Fluoroazetidin-1-yl)carbonyl]-2-[3-(trifluoromethyl)benzyl]-5,6,7,8-tetrahydro[1,2,4]triazolo[4,3-a]pyridin-3(2H)-one]: 1.4 nM; for `COc1ccc(Cn2nc3n(c2=O)[C@H](C(=O)N2CC(F)(F)C2)CCC3)nc1` [Example 532, (5S)-5-[(3,3-Difluoroazetidin-1-yl)carbonyl]-2-[(5-methoxypyridin-2-yl)methyl]-5,6,7,8-tetrahydro[1,2,4]triazolo[4,3-a]pyridin-3(2H)-one]: 34 nM.

These data come from patent US10722501B2 (BAYER AKTIENGESELLSCHAFT, priority 2016, dated 2020).
